These results are taken from patent publication US11759495B2, “Upregulation of therapeutic T regulatory cells and suppression of suicidal ideations in response to inflammation by administration of nutraceutical compositions alone or combined with minocycline” (Therapeutic Solutions International, Inc., priority 2020, dated 2023).

Read-outs that look alike come from different tables or passages of the source.

For data set [1], the system named is lipopolysaccharide-induced inflammatory reactions. To be noted: cited from earlier work.
The subject of data set [2] is sepsis induction with live Escherichia coli / LPS O111:B4. To be noted: cited from earlier work; for concentration of IL-1α: controls 1187.0±278.64.
The conditions of data set [3]: rat, in vivo; cited from earlier work.
For data set [4], the system named is inflammatory cytokines associated with ARDS. The settings on record: cited from earlier work.
For a further data set, the system named is NK cell. Briefly: Nanostilbene in cancer patients: NK cell activity and interferon gamma. The format is in vivo, human. The settings on record: administered in the form of nanostilbene. From the text:
Additionally, pterostilbene has shown to inhibit inflammatory cytokines associated with ARDS.

The test system of a further data set is iNOS. To be noted: cited from earlier work.
The subject of another data set is ulcerative colitis (UC). To be noted: cited from earlier work.
The test system of data set [5] is polymicrobial sepsis. To be noted: 10 mg/kg intraperitoneally at 1 and 6 h after CL2P and every 12 h; cited from earlier work.
The test system of data set [6] is myocardial ischemia and reperfusion. The settings on record: cited from earlier work.
The subject of data set [7] is LPS-induced ARDS. To be noted: cited from earlier work.
The next data set relates to macrophage foam cells. To be noted: cited from earlier work.
Data set [8] deals with polymicrobial sepsis. To be noted: 10 mg/kg intraperitoneally, 72 h after CL2P; cited from earlier work.
Data set [9] relates to lethal endotoxemia / lethal sepsis. To be noted: cited from earlier work.
The test system of data set [10] is primary peritoneal macrophages. The settings on record: cited from earlier work.
Data set [11] has as its system LPS-challenged macrophages. To be noted: 0 to 50 μM, 6 h pre-incubation, LPS 24 h; cited from earlier work.
Data set [12] relates to LPS-induced ARDS. To be noted: cited from earlier work. The source holds these as a separate data set.
The mark [13] stands for this setting: 10 mg/kg intravenously then 10 mg/kg/h infusion.

`CC1=CC(=O)C(C(C)C)=CC1=O` [thymoquinone]: in data set [1], the “concentration of nitric oxide” value is on record as “reduced significantly” and the lipopolysaccharide-induced inflammatory reactions entry is “suppressed effectively”. Moreover, the “concentration of IL-1α” value in data set [2] (0.75 mg/kg dose) is 310.8 ± 70.93 pg/mL. Besides, in data set [2] (0.75 mg/kg, controls 5505.2±333.96), the IL-10 levels was 2885.0 ± 553.98 pg/mL. Besides, the “concentration of IL-1α” value in data set [2] (1 mg/kg group) is 428.3 ± 71.32 pg/mL. Also, the “levels of IL-2” value in data set [2] (P=0.0851) was “relatively lower levels”. In addition, the “levels of TNF-α” value in [2] (P=0.1817) is “relatively lower levels”. Further, in [2] (mice, thymoquinone intraperitoneal), the mortality reduction is recorded as 80-90%. Besides, in data set [2] (mouse, in vivo), the “renal and hepatic biomarker profiles” value is reported as “improved”.
With “trans-3,5-dimethoxy-4-hydroxystilbene [pterostilbene]”, the bioavailability (commonly dose-corrected exposure relative to a reference, in per cent) in data set [3] is 80%. For the same compound, the “interleukin-1, interleukin-6, interleukin-8 and TNF-alpha” value in data set [4] was “inhibition”. In addition, in the data set with NK cell, the NK cell activity result is given as “increased NK cell activity” and the interferon gamma production result is given as “increased”.
Consider epigallocatechin-3-gallate [EGCG], for which the NO production entry in the data set with iNOS (cells cotreated with EGCG and LPS) is recorded as “Inhibition”. In the data set on iNOS, the “130-kDa protein and 4.5-kb mRNA levels of iNOS” value is given as “significantly reduced”; the “disappearance of inhibitor kappaB from cytosolic fraction” value is reported as “blocked”. Moreover, in the data set on iNOS (electrophoretic mobility shift assay), the “activation of nuclear factor-kappaB” value was “blocked”. For the same compound, in the data set on ulcerative colitis (UC) (50 and 100 mg/kg/day), the colonic tissue erosion entry was “attenuation”. Besides, in the data set on ulcerative colitis (UC) (mouse, in vivo), the “HIF-1α and STAT3 protein expression in the colon” value was “decreasing”; the “plasma levels of IL-10 and TGF-β1” value was “increasing”. Further, the “release of IL-6 and IL-17” value with ulcerative colitis (UC) (plasma) is given as “reduce”. In the data set with polymicrobial sepsis [5], the “hypotension (mean arterial blood pressure)” value is “significantly improved”. Besides, in data set [6] (setting [13]), the myeloperoxidase activity entry is “reduced” and the myocardial damage entry is recorded as “reduced”. Moreover, in [6] (rat, in vivo), the “nuclear factor-kB and activator protein-1 DNA binding” value was “reduction”; the “plasma IL-6 levels” value is given as “decreased”; the “plasma creatine phosphokinase levels” value is given as “decreased”. For the same compound, the “LPS-induced ARDS” value in the data set with LPS-induced ARDS [7] (10 mg/kg ip 1 h before LPS 10 mg/kg ip) is on record as “attenuated”. Besides, in the data set with LPS-induced ARDS [7] (10 mg/kg ip), the “expression of IκB-α” value is reported as “increased”; the “expression of TLR-4, MyD88, TRIF, and p-p65 in the lung tissue” value was “alleviated”; the “expression of TNF-α, IL-1f and IL-6 in the lung, serum, and bronchoalveolar lavage fluid” value is on record as “significantly decreased”; the “expression of p65” value is reported as “had no influence”. The “TNF-α-induced nuclear factor-κB (NF-κB) activity” value in the data set on macrophage foam cells is reported as “inhibition”. In addition, in the data set on macrophage foam cells (pretreatment), the “TNF-α-induced downregulation of ABCA1 and decrease in cholesterol efflux to apoA1” value is reported as “attenuated”. Further, the survival result in the data set with polymicrobial sepsis [8] is recorded as “significantly improved”. Besides, the “rescue from lethal sepsis” value in data set [9] (first dose 24 hours after cecal ligation and puncture) was “rescued”. Also, the “protection against lethal endotoxemia” value in [9] (intraperitoneal) is “protected”.
With `C[S+]([O-])CCCCN=C=S` (stereo not shown) [sulforaphane, 1-isothiocyanato-4-(methylsulfinyl)-butane], the HO-1 expression entry in data set [10] (LPS-stimulated Nrf2 (+/+) macrophages) is “significantly augmented”. Besides, in data set [10] (Nrf2 (+/+) macrophages, pretreatment), the “LPS-stimulated mRNA expression, protein expression and production of TNF-alpha, IL-1beta, COX-2 and iNOS” value was “potently inhibited”. Also, the anti-inflammatory effect entry in data set [10] (Nrf2 (-/-) macrophages) is “attenuated”. Also, in data set [11], the “direct reaction with cytokines and NO” value is recorded as “neither directly reacted with cytokines, nor with NO”; the “expression of NO and cytokines” value is “able to prevent”. Also, in the data set with LPS-induced ARDS [12] (50 mg/kg, ELISA), the “serum levels of interleukin-6 (IL-6)” value was “significantly decreased” and the “serum levels of tumor necrosis factor-α (TNF-α)” value is “significantly decreased”. In addition, the “lactate dehydrogenase (LDH) activity” value with LPS-induced ARDS [12] (50 mg/kg, LPS 5 mg/kg 3 days later) is on record as “significantly decreased”. In the data set with LPS-induced ARDS [12] (50 mg/kg, western blot), the “cyclooxygenase-2 (COX-2) protein expression” value was “significantly inhibited” and the “matrix metalloproteinase-9 (MMP-9) protein expression” value is reported as “significantly inhibited”. In the data set with LPS-induced ARDS [12] (50 mg/kg), the “inducible nitric oxide synthase (iNOS) activity” value is on record as “significantly inhibited”, the “nuclear factor-KB protein expression” value is reported as “significantly decreased”, the “prostaglandin E2 (PGE2) production” value is on record as “significantly inhibited” and the “wet-to-dry ratio of the lungs” value is “significantly decreased”. In addition, the “Nrf2/antioxidant response element (ARE) pathway” value in the data set on LPS-induced ARDS [12] (pre-treatment) is recorded as “activated”.
